Measurements from patent publication US10172814B2, “Substituted pyridyl-cycloalkyl-carboxylic acids, compositions containing them and medical uses thereof” (BAYER PHARMA AKTIENGESELLSCHAFT, priority 2014, dated 2019).

Target: human PTGES (Homo sapiens (Human), UniProt O14684)
Experiment: Human PTGES biochemical enzyme inhibition assay (conversion of PGH2 to PGE2, TR-FRET)
Details: Enzymatic conversion of PGH2 to PGE2; read-out: Human PTGES IC50
Protocol: Human PTGES Biochemical Enzyme Inhibition Assay:
PTGES (Microsomal prostaglandin E synthase 1) is an enzyme that converts prostaglandin H2 (PGH2) to prostaglandin E2 (PGE2) in the presence of reduced glutathione (GSH).
Recombinant proteins (human isoforms) of PTGES containing a FLAG tag, expressed in baculovirus infected insect cells (Hi-5) and purified by affinity chromatography was used as enzyme in the assay. Substrate was prostaglandin H2 (Cayman Chemicals).
4 ul of a solution of human PTGES in assay buffer [100 mM sodium phosphate pH 7.2, 2.5 mM Glutathion reduced, 1 mM EDTA, 0.01% BSA, 0.4 mM DTT, 0.15 mM n-dodecylmaltoside] was added to the well containing test compound and incubated for 15-20 minutes to allow binding of the compound to the enzyme prior to the enzymatic reaction. The reaction was started by addition of 1 ul of an ice cold solution containing PGH2 (40 nM in assay buffer resulting in a final concentration of 8 nM PGH2 in the assay). […] The concentration of each isoform of PTGES was adapted to the activity of the respective enzyme preparation to maintain linear reaction properties within the reaction time. […] The reaction was stopped by addition of 1 ul of a solution containing 15 mM SnCl2 and 400 mM KF in water. SnCl2 converts the remaining unstable PGH2 to stable PGF2alpha. Then, 3 ul of the a first detection solution containing PGE2-D2 (Cisbio Bioassays, TR-FRET reagent, diluted according to the manufacturer's recommendation, typically 1:20 in reconstitution buffer) was added. […] The resulting mix was incubated overnight at 4° C. to allow the formation of a complex of PGE2 and the detection reagents. […] Dilution series were made prior to the assay in a 100 fold concentrated form by serial dilution. IC50 values were calculated by 4-Parameter fitting.

human PTGES, sequence (O14684 whole entry): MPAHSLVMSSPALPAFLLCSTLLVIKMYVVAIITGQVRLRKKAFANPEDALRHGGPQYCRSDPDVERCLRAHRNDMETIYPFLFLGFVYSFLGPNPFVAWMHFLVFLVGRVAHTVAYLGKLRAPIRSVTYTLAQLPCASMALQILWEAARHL

SMILES: CCOc1cncc(-c2ccc(C(C(=O)Nc3cccc(C(C)CC(=O)O)c3C)C3CCCC3)cc2)c1 (mixture of isomers) [Example 90, (3R/S)-3-[3-({(2R/S)-2-Cyclopentyl-2-[4-(5-ethoxypyridin-3-yl)phenyl]acetyl}amino)-2-methylphenyl]butanoic acid]
- IC50: 108 nM

SMILES: Cc1c(NC(=O)C(c2ccc(-c3cncc(C(F)(F)F)c3)cc2)C2CCCC2)cccc1C(C)CC(=O)O (mixture of isomers) [Example 91, (3R/S)-3-(3-{[(2R/S)-2-Cyclopentyl-2-{4-[5-(trifluoromethyl)pyridin-3-yl]phenyl}acetyl]amino}-2-methylphenyl)butanoic acid]
- IC50: 20.3 nM

SMILES: CCc1cncc(-c2ccc(C(C(=O)Nc3cccc(C(C)CC(=O)O)c3C)C3CCCC3)cc2)c1 (mixture of isomers) [Example 92, (3R/S)-3-[3-({(2R/S)-2-Cyclopentyl-2-[4-(5-ethylpyridin-3-yl)phenyl]acetyl}amino)-2-methylphenyl]butanoic acid]
- IC50: 22 nM

SMILES: Cc1cc(-c2ccc(C(C(=O)Nc3cccc(C(C)CC(=O)O)c3C)C3CCCC3)cc2)cnc1C (mixture of isomers) [Example 93, (3R/S)-3-[3-({(2R/S)-2-Cyclopentyl-2-[4-(5,6-dimethylpyridin-3-yl)phenyl]acetyl}amino)-2-methylphenyl]butanoic acid]
- IC50: 35.6 nM

SMILES: Cc1cncc(-c2ccc(C(C(=O)Nc3cccc(C(C)CC(=O)O)c3C)C3CCCC3)cc2)c1 (mixture of isomers) [Example 94, (3R/S)-3-[3-({(2R/S)-2-Cyclopentyl-2-[4-(5-methylpyridin-3-yl)phenyl]acetyl}amino)-2-methylphenyl]butanoic acid]
- IC50: 32.3 nM

SMILES: Cc1c(NC(=O)C(c2ccc(-c3cncc(F)c3)cc2)C2CCCC2)cccc1C(C)CC(=O)O (mixture of isomers) [Example 95, (3R/S)-3-[3-({(2R/S)-2-Cyclopentyl-2-[4-(5-fluoropyridin-3-yl)phenyl]acetyl}amino)-2-methylphenyl]butanoic acid]
- IC50: 41.7 nM

SMILES: Cc1ncc(-c2ccc(C(C(=O)Nc3cccc(C(C)CC(=O)O)c3C)C3CCCC3)cc2)cc1F (mixture of isomers) [Example 96, (3R/S)-3-[3-({(2R/S)-2-[4-(5-Fluoro-6-methylpyridin-3-yl)phenyl]-2-cyclopentylacetyl}amino)-2-methylphenyl]butanoic acid]
- IC50: 36.9 nM

SMILES: Cc1ncc(-c2ccc(C(C(=O)Nc3cccc(C(C)CC(=O)O)c3C)C3CCCC3)cc2)cc1Cl (mixture of isomers) [Example 97, (3R/S)-3-[3-({(2R/S)-2-[4-(5-Chloro-6-methylpyridin-3-yl)phenyl]-2-cyclopentylacetyl}amino)-2-methylphenyl]butanoic acid]
- IC50: 13 nM

SMILES: Cc1c(NC(=O)C(c2ccc(-c3cncc(C(F)F)c3)cc2)C2CCCC2)cccc1C(C)CC(=O)O (mixture of isomers) [Example 98, (3R/S)-3-(3-{[(2R/S)-2-Cyclopentyl-2-{4-[5-(difluoromethyl)pyridin-3-yl]phenyl}acetyl]amino}-2-methylphenyl)butanoic acid]
- IC50: 33.8 nM

SMILES: CCOc1cncc(-c2ccc(C(C(=O)Nc3cccc(C(CC)CC(=O)O)c3C)C3CCCC3)cc2)c1 (mixture of isomers) [Example 107, (3R/S)-3-[3-({(2R/S)-2-Cyclopentyl-2-[4-(5-ethoxypyridin-3-yl)phenyl]acetyl}amino)-2-methylphenyl]pentanoic acid]
- IC50: 106 nM

SMILES: Cc1ncc(-c2ccc(C(C(=O)Nc3cccc(C(CC(=O)O)C4CC4)c3C)C3CCCC3)cc2)cc1Cl (mixture of isomers) [Example 108, (3R/S)-3-[3-({(2R/S)-2-[4-(5-chloro-6-methylpyridin-3-yl)phenyl]-2-cyclopentylacetyl}amino)-2-methylphenyl]-3-cyclopropylpropanoic acid]
- IC50: 31.9 nM
